Test results taken from patent US11078194B2, “Salt form and crystal form serving as FGFR and VEGFR inhibitor compounds, and preparation method therefor” (HARBIN ZHENBAO PHARMACEUTICAL CO., LTD., priority 2017, dated 2021).
Read-outs that look alike come from different tables or passages of the source.

Experiment: Solubility test of compounds of formula (I)-(IV) in 4 vehicles (water, SGF, FaSSIF, FeSSIF), HPLC
Assay type: physicochemical
Conditions: for Solubility (μg/mL)_4 hours / solubility at 4 h: 4 hours stirring; for Solubility (μg/mL)_24 hours / solubility at 24 h: 24 hours stirring; for solubility at 24 h / solubility at 4 h: thermodynamic from solid; for solubility at 24 h: read-out: Solubility (μg/mL)_24 hours; for solubility at 4 h: read-out: Solubility (μg/mL)_4 hours
Procedure: About 5 mg of the compound of formula (I) was weighed accurately, and placed in a sample bottle. 10 mL of acetonitrile was added. The mixture was sonicated for 5 minutes, cooled to room temperature, and well mixed. Two control sample solutions were prepared in parallel, and labeled as STD-1 and STD-2, respectively.
The control sample solution STD-1 was serially diluted 1, 5, 10, 100 and 1000 times and labeled as linear solutions L1, L2, L3, L4 and L5.
The solubility of the compound of formula (I) and its salt in 4 vehicles with different pH were tested. About 10 mg of the compounds of formula (I)-(IV) were weighed respectively, then 5.0 mL of different vehicles (water, SGF, FaSSIF, FeSSIF) were added thereto, respectively, and well mixed to obtain suspensions. Magnetic stir bars were added into the suspensions, and the suspensions were placed on a magnetic stirrer for stirring. After stirring for 2 hours, 4 hours, and 24 hours, the samples were collected and centrifuged. The residual solid samples in the lower layer were detected by XRPD. The concentrations of the samples in the upper layer were determined by HPLC, and the pH value of the samples were also detected.
(§1) FaSSIF: (1) 0.042 g of sodium hydroxide, 0.3438 g of sodium dihydrogen phosphate and 0.6186 g of sodium chloride were weighed, and 90 mL of purified water was added and well mixed. The pH value of the obtained solution were adjusted to 6.5 with 1 N hydrochloric acid or 1 N sodium hydroxide, and the solution were diluted with purified water to a final volume of 100 mL. (2) 50 mL of the above buffer solution was taken, followed by addition of 0.224 g of commercially available FaSSIF/FeSSIF/FaSSGF powder (Biorelevant.com). The buffer solution was stirred until dissolved, and diluted with purified water to a final volume of 100 mL. The buffer solution was placed at room temperature.
as §1, with “FeSSIF:” for “FaSSIF:”, “0.404” for “0.042”, “0.865” for “0.3438”, “glacial acetic acid, 1.1874” for “sodium dihydrogen phosphate and 0.6186”, “5.0” for “6.5”, “1.12” for “0.224”
FaSSGF (SGF): (1) 0.2 g of sodium chloride was added to 90 mL of purified water and mixed well. The pH value thereof was adjusted to 1.8 with 1 N hydrochloric acid and the solution diluted with purified water to a final volume of 100 mL. The obtained solution was allowed to stand at room temperature.

[1] = pH of sample in FaSSIF (vehicle pH 6.62)
[2] = pH of sample in FeSSIF (vehicle pH 4.59)
[3] = pH of sample in H2O (vehicle pH 8.23)
[4] = pH of sample in SGF (vehicle pH 1.57)
[5] = water, pH 8.23, water, vehicle H2O
[6] = FaSSIF, pH 6.5, fassif, vehicle FaSSIF
[7] = FeSSIF, pH 5, fessif, vehicle FeSSIF
[8] = SGF (FaSSGF), pH 1.8, simulated gastric fluid, vehicle SGF

Row | pH (4 hours) [1] | pH (24 hours) [1] | pH (4 hours) [2] | pH (24 hours) [2] | pH (4 hours) [3] | pH (24 hours) [3] | pH (4 hours) [4] | pH (24 hours) [4] | solubility at 24 h [5] [µg/mL] | further results | SMILES
1 | 6.25 | 6.22 | 4.90 | 4.91 | 2.68 | 2.68 | 1.86 | 1.86 | 1540 | Solubility (μg/mL)_4 hours (vehicle FaSSIF): 949.7 µg/mL; Solubility (μg/mL)_24 hours (vehicle FaSSIF): 281.6 µg/mL; Solubility (μg/mL)_4 hours (vehicle FeSSIF): 2010.0 µg/mL; Solubility (μg/mL)_24 hours (vehicle FeSSIF): 1831.5 µg/mL; Solubility (μg/mL)_4 hours (vehicle H2O): 1576.9 µg/mL; Solubility (μg/mL)_4 hours (vehicle SGF): 106.3 µg/mL; Solubility (μg/mL)_24 hours (vehicle SGF): 45.4 µg/mL; solubility in the aqueous phase / water (water, conclusion in words, listed as hydrochloride): highest solubility | C[C@@H](Oc1ccc2[nH]nc(/C=C(\F)c3ccc(CNC4CCOCC4)nc3)c2c1)c1c(Cl)cncc1Cl [compound of formula (II)]
2 | 6.43 | 6.33 | 4.96 | 4.97 | 5.60 | 5.47 | 2.09 | 2.08 | 184 | solubility at 4 h [6]: 910 µg/mL; solubility at 24 h [6]: 942 µg/mL; solubility at 4 h [7]: 2370 µg/mL; solubility at 24 h [7]: 2230 µg/mL; solubility at 4 h [8]: 2420 µg/mL; solubility at 24 h [8]: 16.8 µg/mL; solubility at 4 h [5]: 99.5 µg/mL | C[C@@H](Oc1ccc2[nH]nc(/C=C(\F)c3ccc(CNC4CCOCC4)nc3)c2c1)c1c(Cl)cncc1Cl.O=C(O)CC(O)(CC(=O)O)C(=O)O [compound of formula (III)]
